Data published in patent publication US10261017B2, “Methods for detecting and categorizing skin sensitizers” (University of Mississippi, priority 2014, dated 2019).
Where a name gives a salt, the structure may show the parent alone. Read-outs that look alike come from different tables or passages of the source.

Experiments:
[1] = tested on: thiol peptide; assay: Cys-DPRA (Direct Peptide Reactivity Assay), literature data; conditions: for Cys-DPRA binary classification: FN: false negative; for Cys-DPRA binary classification: FP: false positive; for Cys-DPRA binary classification: TN: true negative; for Cys-DPRA binary classification: TP: true positive
[2] = tested on: thiol peptide; conditions: cited from earlier work
[3] = Microplate spectrophotometric method (DCYA assay), fluorescence end-point; conditions: for DCYA binary classification: FN: false negative; for DCYA binary classification: FP: false positive; for DCYA assay reactivity / classification in words: microplate spectrophotometric method; for DCYA binary classification: TN: true negative; for DCYA binary classification: TP: true positive, positive if 100-RI <95; for DCYA 100-RI: RI = reactivity index, 2 equiv. electrophile, pH 10 buffer
[4] = tested on: ARE-dependent gene activity in a recombinant cell line; conditions: cited from earlier work
[5] = cited from earlier work; for LLNA EC3: reported results (Table 7)
[6] = reported results from the literature

For `CCCCBr` [1-Bromobutane], the “Cys-DPRA binary classification: FN” value [1] was 0, the “Cys-DPRA binary classification: FP” value [1] was 1 and the “Cys-DPRA binary classification: TN” value [1] was 0. For the same molecule, the “Cys-DPRA binary classification: TP” value [1] was 0, the “Cys-DPRA reactivity in words” value ([2]; literature) was “minimal reaction” and the “DCYA adduct after long incubation” value ([3]; after 24 h of incubation) was “minor DCYA adduct”. For the same molecule, the “DCYA binary classification: FN” value [3] was 0, the “DCYA binary classification: FP” value [3] was 0 and the “DCYA assay reactivity / classification in words” value [3] was “non-reactive”. For the same molecule, the “DCYA binary classification: TN” value [3] was 1, the “DCYA binary classification: TP” value [3] was 0 and the “KeratinoSens ™ EC3” value ([4]; reported results (Table 7)) was over 2000 µM.
For `OCC=Cc1ccccc1` [Cinnamyl alcohol], the LLNA EC3 [5] is given as 21%, the “Cys-DPRA % Pept. remain.” value [2, 6] is given as 100% and the “DCYA 100-RI” value [3] is given as 105.0. For the same molecule, the “KeratinoSens ™ EC3” value ([4]; reported results (Table 7)) was over 2000 µM.
With `CC(C)=CCCC(C)=CCCC(C)=CC=O` [Farnesal] the “Cys-DPRA binary classification: FN” value [1] was 0, the “Cys-DPRA binary classification: FP” value [1] was 0 and the “Cys-DPRA binary classification: TN” value [1] was 0. For the same molecule, the “Cys-DPRA binary classification: TP” value [1] was 1, the “Cys-DPRA % Pept. remain.” value [2, 6] was 83.6% and the “KeratinoSens ™ EC3” value ([4]; reported results (Table 7)) was over 2000 µM.
For `Nc1ccccc1` [Aniline], the “Cys-DPRA % Pept. remain.” value [2, 6] is listed as 100% and the “KeratinoSens ™ EC3” value ([4]; reported results (Table 7)) is listed as over 2000 µM.
For `O=c1c(-c2ccccc2)c1-c1ccccc1` [Diphenyl cyclopropenone], the LLNA EC3 [5] is given as 0.003%, the “Cys-DPRA binary classification: FN” value [1] is given as 0 and the “Cys-DPRA binary classification: FP” value [1] is given as 0. The “Cys-DPRA binary classification: TN” value [1] was 0, the “Cys-DPRA binary classification: TP” value [1] was 1 and the “Cys-DPRA % Pept. remain.” value [2, 6] was 1.2%. For the same molecule, the “DCYA 100-RI” value [3] was 96.3, the “DCYA binary classification: FN” value [3] was 1 and the “DCYA binary classification: FP” value [3] was 0. For the same molecule, the “DCYA binary classification: TN” value [3] was 0, the “DCYA binary classification: TP” value [3] was 0 and the “KeratinoSens ™ EC3” value ([4]; reported results (Table 7)) was 1.84 µM.
For `CCOC(=O)/C=C\C(=O)OCC` [Diethyl maleate], the LLNA EC3 [5] is listed as 5.8%, the “Cys-DPRA binary classification: FN” value [1] is listed as 0 and the “Cys-DPRA binary classification: FP” value [1] is listed as 0. The “Cys-DPRA binary classification: TN” value [1] was 0, the “Cys-DPRA binary classification: TP” value [1] was 1 and the “Cys-DPRA % Pept. remain.” value [2, 6] was 0%. The “DCYA 100-RI” value [3] was −8.84, the “DCYA binary classification: FN” value [3] was 0 and the “DCYA binary classification: FP” value [3] was 0. For the same molecule, the “DCYA binary classification: TN” value [3] was 0, the “DCYA binary classification: TP” value [3] was 1 and the “KeratinoSens ™ EC3” value ([4]; reported results (Table 7)) was 82.85 µM.
In the case of `CC(C=O)Cc1ccc(C(C)(C)C)cc1` (stereo not shown) [Lilial], the “Cys-DPRA binary classification: FN” value [1] is reported as 0, the “Cys-DPRA binary classification: FP” value [1] is reported as 1 and the “Cys-DPRA binary classification: TN” value [1] is reported as 0. For the same molecule, the “Cys-DPRA binary classification: TP” value [1] was 0, the “Cys-DPRA % Pept. remain.” value [2, 6] was 86% and the “DCYA binary classification: FN” value [3] was 1. The “DCYA binary classification: FP” value [3] was 0, the “DCYA assay reactivity / classification in words” value [3] was “non-reactive” and the “DCYA binary classification: TN” value [3] was 0. For the same molecule, the “DCYA binary classification: TP” value [3] was 0 and the “KeratinoSens ™ EC3” value ([4]; reported results (Table 7)) was over 2000 µM.
In the case of `O=C1OC(=O)C2CCCCC12` (stereo not shown) [1,2-Cyclohexanedicarboxylic anhydride], the LLNA EC3 [5] is given as 0.84%, the “Cys-DPRA % Pept. remain.” value [2, 6] is given as 84.3% and the “DCYA 100-RI” value [3] is given as 104.6. The “KeratinoSens ™ EC3” value ([4]; reported results (Table 7)) was over 2000 µM.
In the case of `CC/C=C\CCCCC=O` [cis-6-Nonenal], the “Cys-DPRA binary classification: FN” value [1] is reported as 0, the “Cys-DPRA binary classification: FP” value [1] is reported as 0 and the “Cys-DPRA binary classification: TN” value [1] is reported as 0. For the same molecule, the “Cys-DPRA binary classification: TP” value [1] was 1, the “Cys-DPRA % Pept. remain.” value [2, 6] was 92% and the “DCYA 100-RI” value [3] was 107.3. For the same molecule, the “DCYA binary classification: FN” value [3] was 1, the “DCYA binary classification: FP” value [3] was 0 and the “DCYA binary classification: TN” value [3] was 0. For the same molecule, the “DCYA binary classification: TP” value [3] was 0 and the “KeratinoSens ™ EC3” value ([4]; reported results (Table 7)) was 687.67 µM.
For `CCC=CC=CC=O` [2,4-Heptadienal], the LLNA EC3 [5] is listed as 4%, the “Cys-DPRA binary classification: FN” value [1] is listed as 0 and the “Cys-DPRA binary classification: FP” value [1] is listed as 0. The “Cys-DPRA binary classification: TN” value [1] was 0, the “Cys-DPRA binary classification: TP” value [1] was 1 and the “Cys-DPRA % Pept. remain.” value [2, 6] was 2.7%. For the same molecule, the “DCYA 100-RI” value [3] was 54.1, the “DCYA binary classification: FN” value [3] was 0 and the “DCYA binary classification: FP” value [3] was 0. The “DCYA binary classification: TN” value [3] was 0, the “DCYA binary classification: TP” value [3] was 1 and the “KeratinoSens ™ EC3” value ([4]; reported results (Table 7)) was 21.91 µM.
For `CC(=O)C(=O)CC(C)C` [5-Methyl-2,3-hexanedione], the “Cys-DPRA binary classification: FN” value [1] was 0, the “Cys-DPRA binary classification: FP” value [1] was 0 and the “Cys-DPRA binary classification: TN” value [1] was 0. For the same molecule, the “Cys-DPRA binary classification: TP” value [1] was 1, the “Cys-DPRA % Pept. remain.” value [2, 6] was 74.2% and the “DCYA 100-RI” value [3] was 90.3. The “DCYA binary classification: FN” value [3] was 0, the “DCYA binary classification: FP” value [3] was 0 and the “DCYA binary classification: TN” value [3] was 0. The “DCYA binary classification: TP” value [3] was 1 and the “KeratinoSens ™ EC3” value ([4]; reported results (Table 7)) was 332.21 µM.
For `O=[N+]([O-])c1ccc(Cl)c([N+](=O)[O-])c1` [1-Chloro-2,4-dinitrobenzene], the “Cys-DPRA binary classification: FN” value [1] was 0, the “Cys-DPRA binary classification: FP” value [1] was 0 and the “Cys-DPRA binary classification: TN” value [1] was 0. For the same molecule, the “Cys-DPRA binary classification: TP” value [1] was 1, the “Cys-DPRA % Pept. remain.” value [2, 6] was 0% and the “DCYA binary classification: FN” value [3] was 1. For the same molecule, the “DCYA binary classification: FP” value [3] was 0, the “DCYA binary classification: TN” value [3] was 0 and the “DCYA binary classification: TP” value [3] was 0. The “KeratinoSens ™ EC3” value ([4]; reported results (Table 7)) was 3.89 µM.
In the case of `COc1cc(C=O)ccc1O` [Vanillin], the “Cys-DPRA binary classification: FN” value [1] is reported as 0, the “Cys-DPRA binary classification: FP” value [1] is reported as 0 and the “Cys-DPRA binary classification: TN” value [1] is reported as 1. The “Cys-DPRA binary classification: TP” value [1] was 0, the “Cys-DPRA % Pept. remain.” value [2, 6] was 96.8% and the “DCYA 100-RI” value [3] was 106.4. The “DCYA binary classification: FN” value [3] was 0, the “DCYA binary classification: FP” value [3] was 0 and the “DCYA binary classification: TN” value [3] was 1. The “DCYA binary classification: TP” value [3] was 0 and the “KeratinoSens ™ EC3” value ([4]; reported results (Table 7)) was over 2000 µM.
In the case of `Clc1ccccc1` [Chlorobenzene], the “Cys-DPRA binary classification: FN” value [1] is reported as 0, the “Cys-DPRA binary classification: FP” value [1] is reported as 0 and the “Cys-DPRA binary classification: TN” value [1] is reported as 1. The “Cys-DPRA binary classification: TP” value [1] was 0, the “Cys-DPRA % Pept. remain.” value [2] was 99.6% and the “DCYA 100-RI” value [3] was 97.8. For the same molecule, the “DCYA binary classification: FN” value [3] was 0, the “DCYA binary classification: FP” value [3] was 0 and the “DCYA binary classification: TN” value [3] was 1. The “DCYA binary classification: TP” value [3] was 0 and the “KeratinoSens ™ EC3” value [4] was over 2000 µM.
In the case of `CCC/C=C/C=O` [trans-2-Hexenal], the “LLNA Classification” value ([5]; published literature) is given as “moderate sensitizer”, the LLNA EC3 [5] is given as 5.5% and the “Cys-DPRA binary classification: FN” value [1] is given as 0. The “Cys-DPRA binary classification: FP” value [1] was 0, the “Cys-DPRA binary classification: TN” value [1] was 0 and the “Cys-DPRA binary classification: TP” value [1] was 1. For the same molecule, the “Cys-DPRA % Pept. remain.” value [2, 6] was 2.1%, the “DCYA 100-RI” value [3] was 29.9 and the “DCYA binary classification: FN” value [3] was 0. The “DCYA binary classification: FP” value [3] was 0, the “DCYA binary classification: TN” value [3] was 0 and the “DCYA binary classification: TP” value [3] was 1. The “KeratinoSens ™ EC3” value ([4]; reported results (Table 7)) was 374.57 µM.
